From patent US10780076B2, “Inhibition of cancer cell motility” (Northwestern University, priority 2014, dated 2020)

Experiments:
human prostate cells = assay: Three day cell growth inhibition, prostate cells; type: cell-based; conditions: 3 days
[1] = tested on: human PCa PC3-M cell orthotopic implants; assay: Orthotopic murine model of human PCa metastasis; type: in vivo, mice; conditions: lung metastasis, KBU2046 in chow, dose-dependent
Protocol: (§1) FIGS. 3A-D. KBU2046 inhibits cancer metastasis and prolongs life. (A, B) Inhibition of PCa metastasis. Cohorts of athymic mice bearing human PCa PC3-M cell orthotopic implants (A), or of non-tumor bearing athymic mice (B), were treated with KBU2046 incorporated into chow, and resultant lung metastasis (A) or plasma KBU2046 concentration (B) measured. Values are the mean±SEM. The relationship between dose and metastasis was evaluated by two-sided ANOVA (A). (C) Comprehensive characterization of KBU2046 phannacokinetics. CD1 mice were dosed with 100 mg KBU2046/kg via oral gavage or intravenous injection (iv), and blood collected at the indicated time points. The dotted horizontal line denotes a concentration of 24 nM, which was the concentration of KBU2046 measured in the blood of mice whose metastasis were suppressed by 92% (A, B). […]
(§2) Orthotopic implantation of human PCa cells and quantification of distant metastasis was performed as described (Pavese et al., 2013; herein incorporated by reference in its entirety). […] Quantification of KBU2046 plasma concentrations was performed by LCMS. […] Critical organs were examined for structural damage using a semi-quantitative histological scoring system (Knodell et al., 1981; herein incorporated by reference in its entirety), while their function was assessed by comprehensive clinical laboratory testing of blood samples. […]

[2] = Plasma KBU2046 concentration in chow-treated athymic mice; type: in vivo
Protocol: as §1, §2

[3] = Pharmacokinetics in CD1 mice; type: in vivo; conditions: single oral dose
Protocol: as §1
FIG. 11. […] (top graph) Concentration versus time plot, expressed as ng/ml. The 100 mg dosing data was re-plotted and expressed as nM. […] Values are parameter estimates from a naive pooled data approach in which single plasma concentrations measured for individual animals were pooled for both routes of administration of both doses and modeled simultaneously.
Orthotopic implantation of human PCa cells and quantification of distant metastasis was performed as described (Pavese et al., 2013; herein incorporated by reference in its entirety). […]

[4] = Systemic off-target effects: organ histology and organ function; type: in vivo, mice
Description: FIG. 13. KBU2046 treatment is not associated with systemic off-target effects. […] After 35 days of treatment, the following organs were harvested at necropsy, and stained with H&E (alternative staining methods as indicated): heart, lungs, esophagus, stomach, colon, small intestine, liver (Trichrome staining), kidneys (Trichrome staining), adrenals, bladder, prostate, spleen, pancreas, brain, testes, and bone marrow and peripheral blood (Giemsa staining). Organs were examined for damage using a semi-quantitative histological scoring system (Knodell et al., 1981; herein incorporated by reference in its entirety). […] Changes in the liver observed in control mice were not increased by KBU2046 treatment. […] On day 8 and 14, all critical organs were weighed, and the following parameters measured in blood: cholesterol, triglycerides, alanine aminotransferase (ALT), aspartate aminotransferase (AST), total bilirubin, glucose, phosphorus, total protein, calcium, blood urea nitrogen (BUN), creatinine, albumin, Na, K, Cl, white blood cells (with differential), red blood cells, hemoglobin, platelets.
Orthotopic implantation of human PCa cells and quantification of distant metastasis was performed as described (Pavese et al., 2013; herein incorporated by reference in its entirety). […] Quantification of KBU2046 plasma concentrations was performed by LCMS. […]

[5] = tested on: phosphorylated Ser226 on HSP90β in PC3 cells; assay: PhosphoScan LC-MS/MS of BL4176 immunoprecipitate; type: cell-based, human; conditions: 10 μM, 3 days, then TGFβ
Protocol: FIG. 16. Identification of the 83 kDa band using a proteomic approach. PC3 cells were pre-treated with 10 μM KBU2046 or vehicle (control) for 3 days, then treated with TGFβ for 1 hr, and the resultant cell lysates were subjected to immunoprecipitation with BL4176 (Kinoview® phospho-motif antibody). Proteins bound in this manner were analyzed using PhosphoScan™ technology. This identified 483 unique phosphopeptide assignments from 306 parent proteins, with a mean false discovery rate of 0.30% (estimated via Sorcerer search of composite human database of forward and reverse protein entries). Only proteins where the average values for treatment and control were each 3 times that of background were considered. Further, it was required that each of the replicate values (used to calculate the average) to be >/=2.5 fold above background. According to these parameters, there were 19 phospho-proteins whose expression decreased in cells treated with KBU2046, compared to control.
Screening for changes in the kinome induced by KBU2046 were evaluated with the Kinoview™ assay system. Proteins pulled down by motif-directed Kinoview™ antibody were identified through PhosphoScan™ technology, using LTQ-Orbitrap LC-MS/MS analysis coupled to a SEQUEST/Sorcerer data analysis suite (Lundgren et al., 2009; herein incorporated by reference in its entirety). […]

plasma concentrations at which metastasis decreased [2]: 1.1 to 24 nM | time plasma concentration maintained >24 nM [3]: 9.3 h
Structure (SMILES): O=C1c2ccccc2OCC1c1ccc(F)cc1 (racemic) [KBU2046, 4′-fluoroisoflavanone]
toxicity to human prostate cells (cell growth inhibition) (human prostate cells): not toxic | decrease in metastasis [1]: up to 92% | organ damage by histologic examination ([4]; Balb/c athymic mice, 35 days of treatment): No organ damage was observed | organ weights and blood chemistry/hematology parameters ([4]; CD1 mice, single iv 15, 75 or 125 mg/kg, day 8 and 14): No abnormal alterations in any of these parameters were observed | decrease in abundance of phosphorylated Ser226 on HSP90β [5]: 6.6 fold
